Patent US4338330A, “Benzimidazole derivatives, their use, and compositions containing these derivatives” (Continental Pharma, priority 1979, dated 1982)
Like-named read-outs stand apart in the source and are kept apart here.

Tests used:
[1] = tested on: guinea pig ileum contractions induced by histamine; assay: Antispasmodic activity against ileum contractions induced by histamine
Experimental: (§1) The antispasmodic activity of the studied substances was examined against guinea pig ileum contractions induced by histamine and acetylcholine.
(§2) These experiences allow to make it obvious an antihistaminic, anticholinergic or musculotrope activity. The response to the contracting agent (sub-maximum concentration) is obtained every 5 minutes before and after injection of increasing concentrations of tested products (10^-7 M to 10^-4 M). The inhibition percentage under the influence of tested products is calculated and the theoretical concentration giving 50% of inhibition is graphically determined for each experience. These values are expressed in -log CI50 (M).

[2] = tested on: isolated guinea pig auricles; assay: Chronotrope effect of the substance on isolated auricles; details: 10^-6 M, 20 minutes, Tyrode, 29° C.
Experimental: The β-lytic effect was searched on the chronotropic response to noradrenaline of isolated guinea pig auricles. Auricles were incubated for 20 minutes in a Tyrode solution at 29° C. in the presence of the substance to be tested at the concentration of 10^-6 M. A positive (+) or negative (-) chronotrope effect of the substance was noted using the following scores: […]

[3] = Antihypertensive activity, oral, unanesthetized spontaneously hypertensive rats; format: in vivo
Experimental: […] Only rats having a systolic pressure of 180 to 220 mm Hg are used. Two rats are used by product. The treatments are administered without the knowledge of the person making the measure.
The antihypertensive effects were recorded according to a score followed by an index. The scoring system is as follows.
The index is calculated by multiplying the systolic pressure difference (cmHg) measured every 30 minutes after the treatment, by a coefficient of 1 to 6 corresponding to times of 30 to 180 minutes.

[4] = tested on: chronotropic response to noradrenaline of isolated guinea pig auricles; assay: β-lytic effect on the chronotropic response to noradrenaline of isolated auricles
Experimental: The β-lytic effect was searched on the chronotropic response to noradrenaline of isolated guinea pig auricles. Auricles were incubated for 20 minutes in a Tyrode solution at 29° C. in the presence of the substance to be tested at the concentration of 10^-6 M. A positive (+) or negative (-) chronotrope effect of the substance was noted using the following scores:
Then, the chronotrope effect of cumulative increasing concentrations of noradrenaline was recorded. The pD2 (-log CE50) value was calculated. A score of β-lytic activity of the substance was given as follows:
If the score at concentration of 10^-6 M was 3 or 4, the effect of the substance was examined at concentration of 10^-7 M and a score was recorded according to the same procedure.

[5] = tested on: guinea pig ileum contractions induced by acetylcholine; assay: Antispasmodic activity against ileum contractions induced by acetylcholine
Experimental: as §1, §2

[6] = LD50 in mice, oral (Lichtfield and Wilcoxon method); format: in vivo
Experimental: LD50 were determined according to the Lichtfield and Wilcoxon method (J. Pharmacol. Exp. Ther. 96, 99, 1949) and expressed in mg/kg. The products were administered to mice orally.

[7] = 60 mg/kg oral, spontaneously hypertensive rats
[8] = 60 mg/kg oral, systolic pressure difference (cmHg) every 30 min multiplied by time coefficient 1 to 6
[9] = mouse, in vivo, po, read-out: LD50

SMILES | Antispasmodic activity, Hist. (-log CI50 (M)) [1] | Chronotrope effect (score) [2] | Antihypertensive activity (score) [3, 7] | β-lytic effect (score) ([4]; 10^-6 M) | β-lytic effect (score) ([4]; 10^-7 M) | Antispasmodic activity, Ac. Chol. (-log CI50 (M)) [5] | further results
CC(C)(C)NCC(O)COc1ccc(-c2nc3ccccc3[nH]2)cc1 (stereo not shown) [Compound 4, 2-[4-(3-t-butylamino-2-hydroxypropoxy)phenyl]benzimidazole] | 5.64 -log CI50 (M) | 0 (if the frequency modification was comprised between +6 and -6) | ++++ (reduction>50 mm Hg) | 3 (if 6.00≥pD2 ≥5.51) | 1 (if 6.80≥pD2 ≥6.41) | 5.72 -log CI50 (M) | Antihypertensive activity (index) [3, 8]: 192; LD50 [6, 9]: 1420 mg/kg
CC(C)NCC(O)COc1ccc(-c2nc3ccccc3[nH]2)cc1 (stereo not shown) [Compound 8, 2-[4-(3-isopropylamino-2-hydroxypropoxy)phenyl]benzimidazole] | 4.65 -log CI50 (M) | 0 (if the frequency modification was comprised between +6 and -6) |  | 4 (if pD2 ≤5.50) |  | 4.95 -log CI50 (M) | Antihypertensive activity (index) ([3]; at 10 mg, oral): 66; Antihypertensive activity (score) ([3]; at 10 mg, oral): +++ (reduction of 30 to 50 mm Hg); LD50 [6]: > 2248 mg/kg
CC(C)NCC(O)COc1ccc(-c2nc3ccccc3[nH]2)cc1 (stereo not shown) [Compound 9, 2-[4-(3-isopropylamino-2-hydroxypropoxy)phenyl]benzimidazole] | 4.75 -log CI50 (M) | 0 (if the frequency modification was comprised between +6 and -6) |  | 4 (if pD2 ≤5.50) |  | 4.60 -log CI50 (M) | Antihypertensive activity (index) ([3]; at 10 mg, oral): 68; Antihypertensive activity (score) ([3]; at 10 mg, oral): +++ (reduction of 30 to 50 mm Hg); LD50 [6]: 2620 mg/kg
CC(C)NCC(O)COc1ccc(-c2nc3ccccc3[nH]2)cc1 (stereo not shown) [Compound 10, 2-[4-(3-isopropylamino-2-hydroxypropoxy)phenyl]benzimidazole] | 4.31 -log CI50 (M) | 0 (if the frequency modification was comprised between +6 and -6) |  | 4 (if pD2 ≤5.50) |  | 4.95 -log CI50 (M) | Antihypertensive activity (index) ([3]; at 10 mg, oral): 61; Antihypertensive activity (score) ([3]; at 10 mg, oral): +++ (reduction of 30 to 50 mm Hg); LD50 [6]: 1960 mg/kg
CC(C)NCC(O)COc1ccc(-c2nc3ccccc3[nH]2)cc1 (stereo not shown) [Compound 11, 2-[4-(3-isopropylamino-2-hydroxypropoxy)phenyl]benzimidazole (dihydrated glucuronate)] | 4.52 -log CI50 (M) | 1 |  | 4 (if pD2 ≤5.50) |  | 4.30 -log CI50 (M) | Antihypertensive activity (index) ([3]; at 10 mg, oral): 51; Antihypertensive activity (score) ([3]; at 10 mg, oral): +++ (reduction of 30 to 50 mm Hg); LD50 [6]: 1494 mg/kg
CC(C)NCC(O)COc1ccc(-c2nc3ccccc3[nH]2)cc1 (stereo not shown) [Compound 12, 2-[4-(3-isopropylamino-2-hydroxypropoxy)phenyl]benzimidazole] | 4.60 -log CI50 (M) | 0 (if the frequency modification was comprised between +6 and -6) | ++++ (reduction>50 mm Hg) | 4 (if pD2 ≤5.50) | 2 (if 6.40≥pD2 ≥6.01) | 4.75 -log CI50 (M) | Antihypertensive activity (index) [3, 8]: 160; LD50 [6]: 1950 mg/kg
CC(CCc1ccc2c(c1)OCO2)NCC(O)COc1ccc(-c2nc3ccccc3[nH]2)cc1 (stereo not shown) [Compound 13] | 6.46 -log CI50 (M) | 0 (if the frequency modification was comprised between +6 and -6) | 0 (reduction <10 mm Hg) | 2 (if 6.40≥pD2 ≥6.01) |  | 6.15 -log CI50 (M) | LD50 [6, 9]: > 1000 mg/kg
CC(C)NCC(O)COc1ccc(-c2nc3c([N+](=O)[O-])cccc3[nH]2)cc1 (stereo not shown) [Compound 17] | 5.15 -log CI50 (M) | 0 (if the frequency modification was comprised between +6 and -6) | ++++ (reduction>50 mm Hg) | 3 (if 6.00≥pD2 ≥5.51) | 2 (if 6.40≥pD2 ≥6.01) | 5.60 -log CI50 (M) | Antihypertensive activity (index) [3, 8]: 89
OC(CNC1CCCCC1)COc1ccc(-c2nc3ccccc3[nH]2)cc1 (stereo not shown) [Compound 18] | 5.45 -log CI50 (M) | 0 (if the frequency modification was comprised between +6 and -6) | +++ (reduction of 30 to 50 mm Hg) | 1 (if 6.80≥pD2 ≥6.41) |  | 5.21 -log CI50 (M) | Antihypertensive activity (index) [3, 8]: 83
COc1ccc2[nH]c(-c3ccc(OCC(O)CNC(C)C)cc3)nc2c1 (stereo not shown) [Compound 19] | 4.99 -log CI50 (M) | 1 | +++ (reduction of 30 to 50 mm Hg) | 4 (if pD2 ≤5.50) |  | 4.70 -log CI50 (M) | Antihypertensive activity (index) [3, 8]: 59
Cc1cc(-c2nc3ccccc3[nH]2)ccc1OCC(O)CNC(C)C (stereo not shown) [Compound 20] |  | 0 (if the frequency modification was comprised between +6 and -6) | 0 (reduction <10 mm Hg) | 4 (if pD2 ≤5.50) | 1 (if 6.80≥pD2 ≥6.41) |  | 
OC(CNCCOc1ccc(Cl)cc1)COc1ccc(-c2nc3ccccc3[nH]2)cc1 (stereo not shown) [Compound 21] |  |  | 0 (reduction <10 mm Hg) |  |  |  | 
Cc1ccc(OCCNCC(O)COc2ccc(-c3nc4ccccc4[nH]3)cc2)cc1 (stereo not shown) [Compound 22] | 5,65 -log CI50 (M) | 0 (if the frequency modification was comprised between +6 and -6) | 0 (reduction <10 mm Hg) | 2 (if 6.40≥pD2 ≥6.01) |  | 5,35 -log CI50 (M) | 
CC(C)NCC(O)COc1ccc(-c2nc3cc([N+](=O)[O-])ccc3[nH]2)cc1 (stereo not shown) [Compound 24, 2-[4-(3-isopropylamino-2-hydroxypropoxy)-phenyl]-5(6)nitrobenzimidazole] | 5,50 -log CI50 (M) | 0 (if the frequency modification was comprised between +6 and -6) |  | 3 (if 6.00≥pD2 ≥5.51) | 2 (if 6.40≥pD2 ≥6.01) | 5,45 -log CI50 (M) | 
COc1cc(-c2nc3ccccc3[nH]2)ccc1OCC(O)CNC(C)C (stereo not shown) [Compound 25, 2-[4-(3-isopropylamino-2-hydroxypropoxy)-3-methoxyphenyl]benzimidazole] |  | 0 (if the frequency modification was comprised between +6 and -6) |  | 3 (if 6.00≥pD2 ≥5.51) | 1 (if 6.80≥pD2 ≥6.41) |  | 
CC(C)C(=O)NCCNCC(O)COc1ccc(-c2nc3ccccc3[nH]2)cc1 (stereo not shown) [Compound 26, 2-{4-[3-(2-isobutyramidoethyl)amino-2-hydroxypropoxy]phenyl}benzimidazole] |  | 0 (if the frequency modification was comprised between +6 and -6) |  | 4 (if pD2 ≤5.50) | 3 (if 6.00≥pD2 ≥5.51) |  | 
O=C(Cc1ccccc1)NCCNCC(O)COc1ccc(-c2nc3ccccc3[nH]2)cc1 (stereo not shown) [Compound 27, 2-{4-[3-(2-phenylacetamidoethyl)amino-2-hydroxypropoxy]phenyl}benzimidazole] |  | 0 (if the frequency modification was comprised between +6 and -6) |  | 4 (if pD2 ≤5.50) | 3 (if 6.00≥pD2 ≥5.51) |  | 
C[C@](N)(Cc1ccc(O)c(O)c1)C(=O)O [alpha-methyldopa, reference compound] |  |  |  |  |  |  | Antihypertensive activity (index) ([3]; 100 mg/kg oral): 47; Antihypertensive activity (score) ([3]; 100 mg/kg oral): +++ (reduction of 30 to 50 mm Hg)
COC(=O)[C@H]1[C@H]2C[C@@H]3c4[nH]c5cc(OC)ccc5c4CCN3C[C@H]2C[C@@H](OC(=O)c2cc(OC)c(OC)c(OC)c2)[C@@H]1OC [reserpine, reference compound] |  |  |  |  |  |  | Antihypertensive activity (index) ([3]; 3 mg/kg oral): 53; Antihypertensive activity (score) ([3]; 3 mg/kg oral): +++ (reduction of 30 to 50 mm Hg)
